Measured values: paper PMC11259703, “A small-molecule allele-selective transcriptional inhibitor of the MIF immune susceptibility locus” (The Journal of Biological Chemistry, 2024)

Legend:
ICBP90 (UHRF1) = target: T1, ICBP90 (UHRF1) (Homo sapiens, UniProt Q96T88); experiment: AlphaScreen inhibition of purified ICBP90 SRA domain binding to biotinylated MIF promoter CATT8 DNA; confirmed by EMSA dose response
T1 construct: SET and RING finger-associated (SRA) domain, amino acids 413 to 618 (ICBP90^413-618), C-terminal 6xHis
T1 sequence (Q96T88 413-618): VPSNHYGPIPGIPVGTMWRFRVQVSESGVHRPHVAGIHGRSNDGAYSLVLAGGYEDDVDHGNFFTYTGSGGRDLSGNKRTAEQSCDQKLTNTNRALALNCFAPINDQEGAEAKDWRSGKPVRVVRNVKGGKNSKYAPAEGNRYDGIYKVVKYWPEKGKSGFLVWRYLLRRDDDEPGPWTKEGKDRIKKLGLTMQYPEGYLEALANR

[1] = system: ICBP90 413-618 (SRA domain); experiment: AlphaScreen; conditions: IC50 of the small-molecule inhibitor CMFT, not a DNA affinity; EMSA: LightShift kit buffer, poly(dI-dC), 20 min at 22 C, 6% native PAGE; ELISA: 10 mM Tris-HCl pH 7.5, 50 mM KCl, 1 mM DTT; AlphaScreen: same plus 0.01% …

Row | Molecule | IC50 (ICBP90 (UHRF1)) [nM] | IC50 [1] [nM]
1 | COC(=O)c1ccc(O)c2nc3c(C=O)c(O)cc(O)c3nc12 [compound 3, 1-carbomethoxy-5-formyl-4,6,8-trihydroxyphenazine] | 490 | –
2 | MIF promoter CATT8 (-794 CATT8), 5'-biotin | – | 490
